Earlier results as cited in patent US9687482B2, “Stable pharmaceutical composition comprising solifenacin, and method for preparing the same” (CJ HEALTHCARE CORPORATION, priority 2014, dated 2017).

Target: muscarinic M3 receptors (Homo sapiens, UniProt P20309)
Conditions: reported

Sequence of muscarinic M3 receptors (P20309 whole entry): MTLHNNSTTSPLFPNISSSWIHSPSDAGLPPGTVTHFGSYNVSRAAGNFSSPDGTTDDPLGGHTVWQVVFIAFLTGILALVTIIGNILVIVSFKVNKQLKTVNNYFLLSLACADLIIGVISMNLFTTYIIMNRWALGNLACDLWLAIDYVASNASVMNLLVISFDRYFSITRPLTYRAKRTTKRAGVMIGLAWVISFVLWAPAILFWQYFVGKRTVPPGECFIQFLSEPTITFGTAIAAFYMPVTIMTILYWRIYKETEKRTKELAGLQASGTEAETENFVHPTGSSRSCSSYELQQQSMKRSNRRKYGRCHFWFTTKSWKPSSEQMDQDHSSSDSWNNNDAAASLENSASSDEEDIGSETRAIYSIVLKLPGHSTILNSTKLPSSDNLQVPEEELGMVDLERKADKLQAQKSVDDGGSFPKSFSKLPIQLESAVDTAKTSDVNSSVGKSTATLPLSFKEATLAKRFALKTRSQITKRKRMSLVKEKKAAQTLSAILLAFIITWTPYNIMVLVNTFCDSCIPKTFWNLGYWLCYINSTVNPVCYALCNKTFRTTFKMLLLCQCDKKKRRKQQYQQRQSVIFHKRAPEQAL

antagonistic action against muscarinic M3 receptors: excellent selective antagonistic action
Structure (SMILES): O=C(O[C@H]1CN2CCC1CC2)N1CCc2ccccc2[C@@H]1c1ccccc1 [Solifenacin, (1R,3′R)-3′-quinuclidinyl-1-phenyl-1,2,3,4-tetrahydro-2-isoquinoline carboxylate]
